From patent US20240391862A1, “(1,4,5-TRISUBSTITUTED-1H-PYRAZOL-3-YL)OXY-2-ALKOXY ALKYL ACIDS AND THEIR DERIVATIVES, THEIR SALTS AND THEIR USE AS HERBICIDAL AGENTS” (Bayer AKtiengesellschaft, priority 2021, published 2024)

Tests used:
ALOMY [1] = assay: Pre-emergence herbicidal effect, greenhouse pot test; assay type: in vivo, Alopecurus myosuroides; conditions: 320 g/ha, scored visually after about 3 weeks vs untreated controls
Text: (§1) Seeds of monocotyledonous and dicotyledonous weed plants and crop plants are placed in plastic or organic planting pots and covered with soil. The compounds of the invention, formulated in the form of wettable powders (WP) or as emulsion concentrates (EC), are then applied to the surface of the covering soil as aqueous suspension or emulsion with addition of 0.5% additive at a water application rate equivalent to 600 l/ha. After the treatment, the pots are placed in a greenhouse and kept under good growth conditions for the trial plants. After about 3 weeks, the effect of the preparations is scored visually in comparison with untreated controls as percentages. For example, 100% activity=the plants have died, 0% activity=like control plants.
(§2) Tables 1a to 19c below show the effects/crop compatibilities of selected compounds of the general formula (I) on various harmful plants at an application rate corresponding to 20 to 320 g/ha, which were obtained by the trial procedure specified above.
(§3) • ALOMY: Alopecurus myosuroides SETVI: Setaria viridis • AVEFA: Avena fatua POLCO: Fallopia convolvulus • AMARE: Amaranthus retroflexus ECHCG: Echinochloa crus-galli • LOLRJ: Lolium rigidum STEME: Stellaria media • VERPE: Veronica persica MATIN: Tripleurospermum inodorum • DIGSA: Digitaria sanguinalis ABUTH: Abutylon threophrasti • TRZAS: Triticum aestivum VIOTR: Viola tricolor • BRSNW: Brassica napus ZEAMX: Zea mays • PHBPU: Ipomoea purpurea GLXMA: Glycine max • ORYSA: Oryza sativa HORMU: Hordeum murinum

GLXMA = assay: Pre-emergence herbicidal effect and crop plant compatibility, greenhouse pot test; assay type: in vivo, Glycine max; conditions: 80 g/ha, scored visually after about 3 weeks vs untreated controls
Text: as §1, §2, §3

TRZAS = assay: as above; assay type: in vivo, Triticum aestivum; conditions: 80 g/ha, scored visually after about 3 weeks vs untreated controls
Text: as §1, §2, §3

AVEFA [2] = assay: Post-emergence herbicidal effect, greenhouse pot test; assay type: in vivo, Avena fatua; conditions: Avena fatua, 504 h, 320 g/ha, visual rating about 3 weeks after treatment, read-out: Post-emergence effect against AVEFA
Outline: (§4)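 Greenhouse pot test: weeds and crops sown in sandy loam, sprayed post-emergence at one-leaf stage (2–3 weeks after sowing) with WP or EC formulations plus 0.5% additive at 600 l/ha water, rates 20–320 g/ha. Visual rating about 3 weeks later versus untreated controls (100% = dead, 0% = as control).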

MATIN [3] = assay: Pre-emergence herbicidal effect, greenhouse pot test; assay type: in vivo, Tripleurospermum inodorum; conditions: scored visually after about 3 weeks vs untreated controls; for pest or weed control at 320 g/ha: Tripleurospermum inodorum, 504 h, read-out: Pre-emergence effect at 320 g/ha against MATIN in %
Text: as §1, §2, §3

MATIN [4] = assay: Post-emergence herbicidal effect, greenhouse pot test; assay type: in vivo, Tripleurospermum inodorum; conditions: Tripleurospermum inodorum, 504 h, read-out: Post-emergence effect against MATIN in %
Outline: as §4

PHBPU [5] = assay: Pre-emergence herbicidal effect, greenhouse pot test; assay type: in vivo, Ipomoea purpurea; conditions: 320 g/ha, scored visually after about 3 weeks vs untreated controls
Text: as §1, §2, §3

AMARE = assay: as above; assay type: in vivo, Amaranthus retroflexus; conditions: scored visually after about 3 weeks vs untreated controls; for pest or weed control at 320 g/ha: Amaranthus retroflexus, 504 h, read-out: Pre-emergence effect at 320 g/ha against AMARE in %
Text: as §1, §2, §3

VIOTR = assay: Post-emergence herbicidal effect, greenhouse pot test; assay type: in vivo, Viola tricolor; conditions: Viola tricolor, 504 h, 320 g/ha, read-out: Post-emergence effect against VIOTR in %
Outline: as §4

ALOMY [6] = assay: as above; assay type: in vivo, Alopecurus myosuroides; conditions: Alopecurus myosuroides, 504 h, visual rating about 3 weeks after treatment, read-out: Post-emergence effect against ALOMY
Outline: as §4

PHBPU [7] = assay: as above; assay type: in vivo, Ipomoea purpurea; conditions: Ipomoea purpurea, 504 h, read-out: Post-emergence effect against PHBPU in %
Outline: as §4

SETVI [8] = assay: as above; assay type: in vivo, Setaria viridis; conditions: Setaria viridis, 504 h, read-out: Post-emergence effect against SETVI in %
Outline: as §4

ECHCG [9] = assay: as above; assay type: in vivo, Echinochloa crus-galli; conditions: Echinochloa crus-galli, 504 h, read-out: Post-emergence effect against ECHCG in %
Outline: as §4

POLCO [10] = assay: Pre-emergence herbicidal effect, greenhouse pot test; assay type: in vivo, Fallopia convolvulus; conditions: Fallopia convolvulus, 504 h, 320 g/ha, scored visually after about 3 weeks vs untreated controls, read-out: Pre-emergence effect at 320 g/ha against POLCO in %
Text: as §1, §2, §3

ECHCG [11] = assay: as above; assay type: in vivo, Echinochloa crus-galli; conditions: Echinochloa crus-galli, 504 h, 320 g/ha, scored visually after about 3 weeks vs untreated controls, read-out: Pre-emergence effect at 320 g/ha against ECHCG in %
Text: as §1, §2, §3

AVEFA [12] = assay: as above; assay type: in vivo, Avena fatua; conditions: 320 g/ha, scored visually after about 3 weeks vs untreated controls
Text: as §1, §2, §3

SETVI [13] = assay: as above; assay type: in vivo, Setaria viridis; conditions: Setaria viridis, 504 h, 320 g/ha, scored visually after about 3 weeks vs untreated controls, read-out: Pre-emergence effect at 320 g/ha against SETVI in %
Text: as §1, §2, §3

POLCO [14] = assay: Post-emergence herbicidal effect, greenhouse pot test; assay type: in vivo, Fallopia convolvulus; conditions: Fallopia convolvulus, 504 h, read-out: Post-emergence effect against POLCO in %
Outline: as §4

DIGSA [15] = assay: as above; assay type: in vivo, Digitaria sanguinalis; conditions: Digitaria sanguinalis, 504 h, visual rating about 3 weeks after treatment, read-out: Post-emergence effect against DIGSA
Outline: as §4

LOLRI [16] = assay: Pre-emergence herbicidal effect, greenhouse pot test; assay type: in vivo, Lolium rigidum; conditions: 320 g/ha, scored visually after about 3 weeks vs untreated controls
Text: as §1, §2, §3

DIGSA [17] = assay: as above; assay type: in vivo, Digitaria sanguinalis; conditions: 320 g/ha, scored visually after about 3 weeks vs untreated controls
Text: as §1, §2, §3

VERPE = assay: Post-emergence herbicidal effect, greenhouse pot test; assay type: in vivo, Veronica persica; conditions: Veronica persica, 504 h, read-out: Post-emergence effect against VERPE in %
Outline: as §4

ZEAMX = assay: Pre-emergence herbicidal effect and crop plant compatibility, greenhouse pot test; assay type: in vivo, Zea mays; conditions: 80 g/ha, scored visually after about 3 weeks vs untreated controls
Text: as §1, §2, §3

LOLRI [18] = assay: Post-emergence herbicidal effect, greenhouse pot test; assay type: in vivo, Lolium rigidum; conditions: Lolium rigidum, 504 h, read-out: Post-emergence effect against LOLRI in %
Outline: as §4

| SMILES | Pre-emergence effect at 80 g/ha against GLXMA in % (GLXMA) [%] | Pre-emergence effect at 80 g/ha against TRZAS in % (TRZAS) [%] | pest or weed control at 320 g/ha (MATIN [3]) [%] | pest or weed control at 320 g/ha (MATIN [4]) [%] | Pre-emergence effect at 320 g/ha against PHBPU in % (PHBPU [5]) [%] | Pre-emergence effect at 80 g/ha against AMARE in % (AMARE) [%] | pest or weed control at 320 g/ha (AMARE) [%] | pest or weed control at 80 g/ha (ALOMY [6]) [%] | pest or weed control at 320 g/ha (ALOMY [6]) [%] | pest or weed control at 320 g/ha (PHBPU [7]) [%] | pest or weed control at 320 g/ha (SETVI [8]) [%] | pest or weed control at 80 g/ha (ECHCG [9]) [%] | pest or weed control at 320 g/ha (ECHCG [9]) [%] | pest or weed control at 320 g/ha (POLCO [10]) [%] | pest or weed control at 320 g/ha (ECHCG [11]) [%] | also measured |
| --- | --- | --- | --- | --- | --- | --- | --- | --- | --- | --- | --- | --- | --- | --- | --- | --- |
| COC(=O)C(OC)Oc1nn(-c2ncccc2F)c(-c2ccccc2)c1Br (centres unmarked) [Example I-06] | 10 | 10 | 90 | 80 | 90 | 90 | 100 | 90 | 90 | 80 | 80 | 80 | 80 | 80 | 100 | Pre-emergence effect at 320 g/ha against ALOMY in % (ALOMY [1]): 90%; pest or weed control at 320 g/ha (AVEFA [2]): 80%; Pre-emergence effect at 80 g/ha against MATIN in % (MATIN [3]; 80 g/ha): 80%; pest or weed control at 80 g/ha (MATIN [4]; 80 g/ha): 80%; pest or weed control at 320 g/ha (VIOTR): 80%; pest or weed control at 80 g/ha (PHBPU [7]; 80 g/ha): 80%; pest or weed control at 80 g/ha (SETVI [8]; 80 g/ha): 80% |
| COC(=O)C(OC)Oc1nn(-c2ncccc2F)c(-c2ccc(F)cc2F)c1Br (centres unmarked) [Example I-07] | 10 | 20 | 90 | 80 | 90 | 80 | 90 | 90 | 90 | 80 | 80 | 80 | 80 | 80 | 90 | Pre-emergence effect at 320 g/ha against AVEFA in % (AVEFA [12]): 80%; pest or weed control at 320 g/ha (SETVI [13]): 100%; pest or weed control at 80 g/ha (POLCO [14]; 80 g/ha): 80%; pest or weed control at 320 g/ha (POLCO [14]; 320 g/ha): 90%; pest or weed control at 80 g/ha (DIGSA [15]; 80 g/ha): 80%; pest or weed control at 320 g/ha (DIGSA [15]; 320 g/ha): 90%; Pre-emergence effect at 320 g/ha against LOLRI in % (LOLRI [16]): 90%; Pre-emergence effect at 320 g/ha against DIGSA in % (DIGSA [17]): 90%; pest or weed control at 80 g/ha (VERPE; 80 g/ha): 80%; pest or weed control at 320 g/ha (VERPE; 320 g/ha): 80%; Pre-emergence effect at 80 g/ha against ZEAMX in % (ZEAMX): 10%; pest or weed control at 80 g/ha (LOLRI [18]; 80 g/ha): 80%; pest or weed control at 320 g/ha (LOLRI [18]; 320 g/ha): 80% |
